Results from patent US5187166A, “Azabicyclo derivatives and their use as antiemetics” (Nisshin Flour Milling Co., Ltd., priority 1990, dated 1993).

Tested on: 5-HT3 receptors
Assay: antagonism of the von Bezold-Jarisch reflex (bradycardia) induced by 5-HT in the anaesthetised rat
Type: in vivo
Settings: i.v., hydrochloride salt, 5 min before 5-HT 30 μg/kg, urethane-anaesthetised rats
Method: Temporary bradycardia is induced by administration of 5-HT (serotonin) to anaesthetised rats via jugular vein (von Bezold Jarisch Reflex) (A. S. Paintal, Physiol. Rev., 53, 159-210 (1973)).
The compounds of the present invention were evaluated for antagonism of the von Bezold-Jarisch reflex induced by 5-HT in the anaesthetised rat according to the following method.
Rats were anaesthetised with urethane (1 g/kg, intraperitoneally) and blood pressure and heart rate recorded from left femoral artery. Percent inhibition was calculated from bradycardia induced by 5-HT (30 μg/kg) given 5 minutes following intrajugular administration of a compound of the invention, taking the bradycardia induced by the intrajugular administration of 5-HT. The compounds of the present invention were tested in the form of their hydrochloride salts.

SMILES	Percent Inhibition (1.0 μg/kg) [%]	Percent Inhibition (10 μg/kg) [%]	Percent Inhibition (0.1 μg/kg) [%]
CN1C[C@H]2C[C@@H](NC(=O)c3c[nH]c4ccccc34)C[C@@H](C1)N2C [Example 11, Endo-3,9-dimethyl-3,9-diazabicyclo[3.3.1]non-7-yl 1H-indole-3-carboxamide]	39	79	–
COc1cc(N)c(Cl)cc1C(=O)N[C@@H]1C[C@@H]2CN(C)C[C@H](C1)N2C [Example 22, Endo-3,9-dimethyl-3,9-diazabicyclo[3.3.1]non-7-yl 4-amino-5-chloro-2-methoxyphenylcarboxyamide]	43	89	–
CCn1nc(C(=O)N[C@@H]2C[C@@H]3CN(C)C[C@H](C2)N3C)c2ccccc21 [Example 15, Endo-3,9-dimethyl-3,9-diazabicyclo[3.3.1]non-7-yl 1-ethylindazole-3-carboxamide]	91	–	42
CN1C[C@H]2C[C@@H](NC(=O)c3n[nH]c4ccccc34)C[C@@H](C1)N2C [Example 13]	28	95	–
CN1C[C@H]2C[C@@H](OC(=O)c3c[nH]c4ccccc34)C[C@@H](C1)N2C [Example 9, (Endo-3,9-dimethyl-3,9-diazabicyclo[3.3.1]non-7-yl) 1H-indole-3-carboxylate]	58	91	28
CN1C[C@H]2C[C@@H](NC(=O)c3nn(Cc4ccccc4)c4ccccc34)C[C@@H](C1)N2C [Example 17, Endo-3,9-dimethyl-3,9-diazabicyclo[3.3.1]non-7-yl 1-benzylindazole-3-carboxamide]	91	–	43
CCCCCCCCn1nc(C(=O)N[C@@H]2C[C@@H]3CN(C)C[C@H](C2)N3C)c2ccccc21 [Example 18, Endo-3,9-dimethyl-3,9-diazabicyclo[3.3.1]non-7-yl 1-(n-octyl)indazole-3-carboxamide]	15	–	–
CN1[C@@H]2CSC[C@H]1C[C@@H](OC(=O)c1nn(C)c3ccccc13)C2 [Example 3, (Endo-9-methyl-3-thia-9-azabicyclo[3.3.1]non-7-yl) 1-methylindazole-3-carboxylate]	67	–	43
CN1[C@@H]2COC[C@H]1C[C@@H](OC(=O)c1nn(C)c3ccccc13)C2 [Example 4, (Endo-9-methyl-3-oxa-9-azabicyclo[3.3.1]non-7-yl) 1-methylindazole-3-carboxylate]	80	–	59
CN1[C@@H]2COC[C@H]1C[C@@H](OC(=O)c1c[nH]c3ccccc13)C2 [Example 2, (Endo-9-methyl-3-oxa-9-azabicyclo[3.3.1]non-7-yl) 1H-indole-3-carboxylate]	93	–	54
COc1cc(N)c(Cl)cc1C(=O)O[C@H]1C[C@H]2CSC[C@@H](C1)N2C [Example 5, (Endo-9-methyl-3-thia-9-azabicyclo[3.3.1]non-7-yl) 4-amino-5-chloro-2-methoxy benzoate]	–	58	–
CC(C)n1nc(C(=O)N[C@@H]2C[C@@H]3CN(C)C[C@H](C2)N3C)c2ccccc21 [Example 16, Endo-3,9-dimethyl-3,9-diazabicyclo[3.3.1]non-7-yl 1-(2-propyl)indazole-3-carboxamide]	–	–	59
CN1[C@@H]2CSC[C@H]1C[C@@H](OC(=O)c1c[nH]c3ccccc13)C2 [Example 1, (Endo-9-methyl-3-thia-9-azabicyclo[3.3.1]non-7-yl) 1H-indole-3-carboxylate]	85	–	51
CN1C[C@H]2C[C@@H](NC(=O)c3nn(C)c4ccccc34)C[C@@H](C1)N2C [Example 12, Endo-3,9-dimethyl-3,9-diazabicyclo[3.3.1]non-7-yl 1-methylindazole-3-carboxamide]	71	–	25
CN(C)CCn1nc(C(=O)N[C@@H]2C[C@@H]3CN(C)C[C@H](C2)N3C)c2ccccc21 [Example 19, Endo-3,9-dimethyl-3,9-diazabicyclo[3.3.1]non-7-yl 1-[2-(dimethylamino)ethyl]indazole-3-carboxamide]	10	–	–
CN1[C@@H]2COC[C@H]1C[C@@H](NC(=O)c1c[nH]c3ccccc13)C2 [Example 7, Endo-9-methyl-3-oxa-9-azabicyclo[3.3.1]non-7-yl 1H-indole-3-carboxamide]	36	72	–
